Measurements taken from patent publication US11420959B2, “DACOS type NNRTIS amino acid ester derivative, preparation method thereof, pharmaceutical composition, and application thereof” (YUNNAN UNIVERSITY, priority 2018, dated 2022).
Where two headings read alike, the source gives them in different places.

Columns and labels:
[1] = Cytotoxicity experiment (MTT method) on C8166 cells; format: cell-based; conditions: human
Procedure: Cytotoxicity experiment: The toxicity of the compounds on C8166 cells was determined by MTT method. In a 96-well cell culture plate, the compounds were subjected to 5-fold serial dilution and 100 μL of C8166 cell suspension (4×10^5/mL) was added into each well. Three replicate wells were set for each concentration. At the same time, a cell control group without drugs and drug control groups with Zidovudine (AZT) or Nevirapine (NVP) were set. The cells were incubated at 37° C. in a 5% CO2 incubator for three days, followed by the addition of MTT solution into each well, and then the cells were incubated at 37° C. for 4 hours. 15% SDS-50% DMF was added to each well and the cells were incubated at 37° C. in a 5% CO2 incubator overnight. After mixing evenly, the OD values were measured by BIO-TEK ELx800 ELISA instrument (determination wavelength: 570 nm; reference wavelength: 630 nm).

HIV-1IIIB = test: Syncytium inhibition experiment, C8166 cells infected with HIV-1IIIB; format: cell-based; conditions: Human immunodeficiency virus 1, 72 h, syncytium count, three days
Procedure: The specific method was described below.
Syncytium inhibition experiment: 100 μL of C8166 cell suspension (4×10^5/mL) was inoculated into each well of a 96-well cell culture plate containing 5-fold serial dilutions of the compounds, followed by addition of HIV-1IIIB diluted supernatant (MOI=0.04). Three replicate wells were set for each serial concentration. […] The cells were incubated at 37° C. in a 5% CO2 incubator for three days. The number of the syncytia was counted in five non-overlapping fields of view by using an inverted microscope (100×). […] Calculation formula: cytopathic inhibition rate (%)=(1−number of syncytia in experimental wells/number of syncytia in control well)×100%.

[2] = due to strong hydrophobicity; cited from earlier work

Cc1cn([C@H]2C[C@H](N=[N+]=[N-])[C@@H](CO)O2)c(=O)[nH]c1=O [AZT, Zidovudine, reference compound]
CC50 at 3 days [1]: > 749 µM

CCc1c(CC2CCCCC2)nc(SCC(=O)c2ccc(OC(=O)CN)cc2)[nH]c1=O [Compound I-1]
EC50 (HIV-1IIIB): 0.004 µM | CC50 at 3 days [1]: 138 µM

CCc1c(CC2CCCCC2)nc(SCC(=O)c2ccc(OC(=O)C(N)CC(C)C)cc2)[nH]c1=O (stereo not shown) [Compound I-2]
EC50 (HIV-1IIIB): 0.003 µM | CC50 at 3 days [1]: 112 µM

CCc1c(CC2CCCCC2)nc(SCC(=O)c2ccc(OC(=O)[C@H](N)[C@H](C)CC)cc2)[nH]c1=O [Compound I-3]
EC50 (HIV-1IIIB): 0.005 µM | CC50 at 3 days [1]: 134 µM

CCc1c(CC2CCCCC2)nc(SCC(=O)c2ccc(OC(=O)C3CCCN3)cc2)[nH]c1=O (stereo not shown) [Compound I-4]
EC50 (HIV-1IIIB): 0.012 µM | CC50 at 3 days [1]: 95.4 µM

CCc1c(CC2CCCCC2)nc(SCC(=O)c2ccc(OC(=O)C(N)Cc3c[nH]c4ccccc34)cc2)[nH]c1=O (stereo not shown) [Compound I-5]
EC50 (HIV-1IIIB): 0.004 µM | CC50 at 3 days [1]: 95.2 µM

CCc1c(CC2CCCCC2)nc(SCC(=O)c2ccc(OC(=O)[C@@H](C)N)cc2)[nH]c1=O [Compound I-6]
EC50 (HIV-1IIIB): 0.004 µM | CC50 at 3 days [1]: 96 µM

CCc1c(CC2CCCCC2)nc(SCC(=O)c2ccc(OC(=O)C(N)Cc3ccccc3)cc2)[nH]c1=O (stereo not shown) [Compound I-7]
EC50 (HIV-1IIIB): 0.009 µM | CC50 at 3 days [1]: 90.1 µM

CCc1c(CC2CCCCC2)nc(SCC(=O)c2ccc(OC(=O)C(N)CCSC)cc2)[nH]c1=O (stereo not shown) [Compound I-8]
EC50 (HIV-1IIIB): 0.004 µM | CC50 at 3 days [1]: 116 µM

CCc1c(CC2CCCCC2)nc(SCC(=O)c2ccc(OC(=O)C(N)CCCCN)cc2)[nH]c1=O (stereo not shown) [Compound I-9]
EC50 (HIV-1IIIB): 0.006 µM | CC50 at 3 days [1]: 101 µM

CCc1c(CC2CCCCC2)nc(SCC(=O)c2ccc(OC(=O)C(N)Cc3cnc[nH]3)cc2)[nH]c1=O (stereo not shown) [Compound I-10]
EC50 (HIV-1IIIB): 0.012 µM | CC50 at 3 days [1]: 199 µM

CCc1c(CC2CCCCC2)nc(SCC(=O)c2ccc(OC(=O)C(N)CCC(N)=O)cc2)[nH]c1=O (stereo not shown) [Compound I-11]
EC50 (HIV-1IIIB): 0.005 µM | CC50 at 3 days [1]: 118 µM

CCc1c(CC2CCCCC2)nc(SCC(=O)c2ccc(OC(=O)C(N)CC(N)=O)cc2)[nH]c1=O (stereo not shown) [Compound I-12]
EC50 (HIV-1IIIB): 0.004 µM | CC50 at 3 days [1]: 120 µM

CCc1c(CC2CCCCC2)nc(SCC(=O)c2ccc(OC(=O)C(N)C(C)C)cc2)[nH]c1=O (stereo not shown) [Compound I-13]
EC50 (HIV-1IIIB): 0.003 µM | CC50 at 3 days [1]: 94.8 µM

CC[C@@H](C)[C@@H](N)C(=O)Oc1ccc(C(=O)CSc2nc(CC3CCCCC3)c(C(C)C)c(=O)[nH]2)cc1 [Compound I-14]
EC50 (HIV-1IIIB): 0.004 µM | CC50 at 3 days [1]: 186 µM

CC(C)c1c(CC2CCCCC2)nc(SCC(=O)c2ccc(OC(=O)C3CCCN3)cc2)[nH]c1=O (stereo not shown) [Compound I-15]
EC50 (HIV-1IIIB): 0.012 µM | CC50 at 3 days [1]: 98.3 µM

CC(C)c1c(CC2CCCCC2)nc(SCC(=O)c2ccc(OC(=O)C(N)Cc3c[nH]c4ccccc34)cc2)[nH]c1=O (stereo not shown) [Compound I-16]
EC50 (HIV-1IIIB): 0.004 µM | CC50 at 3 days [1]: 118 µM

CC(C)c1c(CC2CCCCC2)nc(SCC(=O)c2ccc(OC(=O)CN)cc2)[nH]c1=O [Compound I-17]
EC50 (HIV-1IIIB): 0.003 µM | CC50 at 3 days [1]: 191 µM

CC(C)CC(N)C(=O)Oc1ccc(C(=O)CSc2nc(CC3CCCCC3)c(C(C)C)c(=O)[nH]2)cc1 (stereo not shown) [Compound I-18]
EC50 (HIV-1IIIB): 0.004 µM | CC50 at 3 days [1]: 97.4 µM

CC(C)c1c(CC2CCCCC2)nc(SCC(=O)c2ccc(OC(=O)C(N)C(C)C)cc2)[nH]c1=O (stereo not shown) [Compound I-19]
EC50 (HIV-1IIIB): 0.003 µM | CC50 at 3 days [1]: 126 µM

CSCCC(N)C(=O)Oc1ccc(C(=O)CSc2nc(CC3CCCCC3)c(C(C)C)c(=O)[nH]2)cc1 (stereo not shown) [Compound I-20]
EC50 (HIV-1IIIB): 0.003 µM | CC50 at 3 days [1]: 153 µM

CC(C)c1c(CC2CCCCC2)nc(SCC(=O)c2ccc(OC(=O)C(N)Cc3ccccc3)cc2)[nH]c1=O (stereo not shown) [Compound I-21]
EC50 (HIV-1IIIB): 0.004 µM | CC50 at 3 days [1]: 95 µM

Cc1c(CC2CCCCC2)nc(SCC(=O)c2ccc(OC(=O)C(N)Cc3ccccc3)cc2)[nH]c1=O (stereo not shown) [Compound I-22]
EC50 (HIV-1IIIB): 0.01 µM | CC50 at 3 days [1]: 98.6 µM

Cc1c(CC2CCCCC2)nc(SCC(=O)c2ccc(OC(=O)CN)cc2)[nH]c1=O [Compound I-23]
EC50 (HIV-1IIIB): 0.008 µM | CC50 at 3 days [1]: > 200 µM

CSCCC(N)C(=O)Oc1ccc(C(=O)CSc2nc(CC3CCCCC3)c(C)c(=O)[nH]2)cc1 (stereo not shown) [Compound I-24]
EC50 (HIV-1IIIB): 0.012 µM | CC50 at 3 days [1]: 199 µM

CCc1c(CC2CCCCC2)nc(SCC(=O)c2ccccc2)[nH]c1=O [DB02]
bioavailability [2]: low

Cc1ccnc2c1NC(=O)c1cccnc1N2C1CC1 [NVP, Nevirapine, reference compound]
EC50 (HIV-1IIIB): 0.013 µM | CC50 at 3 days ([1]; C8166 cells, MTT, three days, read-out: CC50): 504 µM
